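Cells were grown in 96-well plates and exposed to each compound for 48 hours at five concentrations; endpoints were interpolated linearly between bracketing concentrations, or set to the highest concentration if not reached. GI50 = concentration required for 50% inhibition of growth. TGI: total growth inhibition.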
Experiments:
Assay in all cases: NCI anticancer screen, dose series, 48 h
DU-145 prostate = system: DU-145 prostate
EKVX NSCLC = system: EKVX NSCLC
HS 578T breast = system: HS 578T breast
HCT-116 colon = system: HCT-116 colon
A549 NSCLC = system: A549 NSCLC
UACC-62 melanoma = system: UACC-62 melanoma
HOP-62 NSCLC = system: HOP-62 NSCLC
TK-10 renal = system: TK-10 renal
T-47D breast = system: T-47D breast
SNB-75 CNS = system: SNB-75 CNS

Compound | TGI (DU-145 prostate) [µM] | TGI (EKVX NSCLC) [µM] | TGI (HS 578T breast) [µM] | TGI (HCT-116 colon) [µM] | TGI (A549 NSCLC) [µM] | TGI (UACC-62 melanoma) [µM] | TGI (HOP-62 NSCLC) [µM] | TGI (TK-10 renal) [µM] | TGI (T-47D breast) [µM] | TGI (SNB-75 CNS) [µM] | GI50 (DU-145 prostate) [µM] | GI50 (EKVX NSCLC) [µM] | GI50 (HS 578T breast) [µM] | GI50 (HCT-116 colon) [µM] | GI50 (A549 NSCLC) [µM] | GI50 (UACC-62 melanoma) [µM] | GI50 (HOP-62 NSCLC) [µM] | GI50 (TK-10 renal) [µM] | GI50 (T-47D breast) [µM] | GI50 (SNB-75 CNS) [µM]
CC(C)(CN1CCCCC1)C(=O)/C=C/c1ccc(/C=C/C(=O)C(C)(C)CN2CCCCC2)cc1 | 5.05 | 4.21 | 3.2 | 1.1 | 2.97 | 2.35 | 2.19 | 2.31 | 1.65 | 1.82 |  |  |  |  |  |  |  |  |  | 
NS(=O)(=O)c1ccc(Nc2cc(-c3cccc(O)c3)[nH]n2)cc1 | > 25 | > 25 | > 25 | > 25 | > 25 | > 25 | > 25 | > 25 | > 25 | > 25 | > 25 | > 25 | > 25 | > 25 | > 25 | > 24.2 | > 25 | > 25 | 10 | 24.5
c1ccc([P+](CCSCCSCC[P+](c2ccccc2)(c2ccccc2)c2ccccc2)(c2ccccc2)c2ccccc2)cc1 | > 100 | > 100 | > 100 | > 100 | > 100 | > 100 | > 100 | > 100 | > 100 | > 100 |  |  |  |  |  |  |  |  |  | 
Cc1cccc(N(C)C(=O)[C@@H]2[C@H](O)CCN2c2nc(C)cc(C(F)(F)F)c2C#N)c1 | > 100 | > 100 | > 100 | 29 | > 100 | 74.5 | > 100 | > 100 | > 100 | > 100 | 25.1 | 24.6 | 25.7 | 15.4 | 21.9 | 21.9 | 25.8 | 28.5 | 23.2 | 31.4

Source: PubChem BioAssay (NCI)
